Results from patent publication US11591306B2, “Vitamin E-based amphipathic compound, and use thereof” (Industry-University Cooperation Foundation Hanyang …, priority 2017, dated 2023).

Legend:
[1] = target: T1, β2AR-Gs complex (Homo sapiens, UniProt P07550); test: Negative stain EM analysis of β2AR-Gs complex; conditions: complex purified by VEG-3
T1 construct: made in house
Description: A β2AR-Gs protein complex was prepared for electron microscopy using a conventional negative staining protocol, and imaged at room temperature using a Tecnai T12 electron microscope operated at 120 kV according to a low-dose procedure. Images recorded at a magnification of 71,138× and a defocus value of approximately −1.1 urn on a Gatan US4000 CCD camera. All images were binned (2×2 pixels) to obtain a pixel size of 4.16 Å at a specimen level. Particles were manually […] using e2boxer (part of the EMAN2 software suite). 2D reference-free alignment and classification of particle projections were performed using ISAC. 23,035 projections of β2AR-Gs were subjected to ISAC producing 19 classes consistent in two-way matching and 5401 particle projections.

[2] = target: UapA (Emericella nidulans, UniProt Q07307, G411V); test: UapA thermal stability, CPM assay; set-up: made in house; host or cells: Saccharomyces cerevisiae FGY217 membranes; conditions: CMC+0.2 wt %, 40° C. for 120 minutes
Description: UapAG411VΔ1-11 (hereinafter, referred to as “UapA”) was expressed in a Saccharomyces cerevisiae FGY217 strain by GFP fusion, and isolated into a sample buffer (20 mM Tris (pH 7.5), 150 mM NaCl, 0.03% DDM, 1 mM xanthine), which was performed according to the method disclosed in the paper written by J. Leung et al. (Mol. Menthr. Biol. 2013, 30, 32-42). The protein was concentrated to be approximately 10 mg/ml using a 100 kDa molecular weight cutoff filter (Millipore). The protein was diluted 1:150 with a buffer containing DDM, VEG (VEG-1, VEG-2, VEG-3, VEG-4 or VEG-5) or LMNG at CMC+0.2 wt % in Greiner 96. CPM dye (Invitrogen) stored in DMSO (Sigma) was diluted with a dye buffer (20 mM Tris (pH 7.5), 150 mM NaCl, 0.03% DDM, 5 mM EDTA), and 3 μL of the diluted dye was added to an individual protein sample. The reaction mixture was treated at a constant temperature of 40° C. for 120 minutes. A fluorescence emission intensity was monitored using a microplate spectrofluorometer set to excitation and emission wavelengths of 387 and 463 nm, respectively. The maximum fluorescence value was used to calculate the percentage of a protein folded during incubation. The relative amount of the folded protein was plotted over time using GraphPad Prism.

[3] = tested on: T2, LHI-RC complex; test: LHI-RC structural stability, UV-Vis absorbance at 875 nm; set-up: species or system R. capsulatus; conditions: CMC+0.04 wt % or CMC+0.2 wt %, 20 days at 25° C.
T2 construct: His tag (only implied by Ni2+-NTA capture and imidazole elution; put on M from own knowledge of pUHTM86Bgl); made in house; host or cells: R. capsulatus U43 [pUHTM86Bgl] membranes
Description: An experiment was conducted to evaluate the ability of VEGs to stabilize the structure of LHI-RC. The photosynthetic superassembly consists of a complex of light-Harvesting complex I (LHI) and a reaction center (RC). The structural stability of LHI-RC was measured by a method of monitoring the structure of a protein for 20 days using UV-Vis spectroscopy. As amphipathic molecules, all VEGs of the present invention and conventional amphipathic molecules DDM and OG were used, and the concentrations of the amphipathic molecules were measured at CMC+0.04 wt % (FIG. 5A) and CMC+0.2 wt % ([…]), and the stability of the LHI-RC protein was investigated according to the concentration of an amphipathic molecule.
Specifically, LHI-RC stability was measured using a method disclosed in the paper published in 2008 by the inventors (P. S. Chae et al., ChemBioChem 2008, 9, 1706-1709). […] A 10 mL aliquot of the solution of the frozen R. capsulatus membrane was homogenized using a glass homogenizer, and incubated with gentle stirring at 32° C. for 30 minutes. The homogenized membrane was treated with 1.0 wt % DDM for 30 minutes at 32° C. […] Protein stability was measured at regular intervals during the cubation by measuring UV-Vis spectra of the samples in the range of 650 to 950 nm. Protein integrity was evaluated by monitoring absorbance (A875) at 875 nm.

Cc1c(C)c2c(c(C)c1OCC(=O)NC(CO[C@@H]1OC(CO)[C@@H](O[C@H]3OC(CO)[C@@H](O)[C@H](O)C3O)[C@H](O)C1O)CO[C@@H]1OC(CO)[C@@H](O[C@H]3OC(CO)[C@@H](O)[C@H](O)C3O)[C@H](O)C1O)CCC(C)(CCCC(C)CCCC(C)CCCC(C)C)O2 (stereo partly drawn) [VEG-3]
Homogeneity of β2AR-Gs complex particles (negative stain EM) [1]: highly homogeneous | Ability to maintain UapA in a structurally stable state (CPM assay) [2]: excellent ability to maintain UapA in a structurally stable state | Ability to maintain the integrity of the LHI-RC complex (A875) [3]: most excellent effect
